Tests used:
[1] = test system: Pseudomonas aeruginosa ATCC 9027; assay: Antimicrobial activity, serial dilution technique in Mueller–Hinton Broth 2; type: cell-based; settings: average of three ± SD, - means non-active; for MBC / MIC: Pseudomonas aeruginosa, ATCC9027, Pa; for MBC: read-out: Minimum Bactericidal and Fungicidal Concentration (MBC, MFC), Pa; for MIC: read-out: Minimum Inhibitory Concentration (MIC), Pa
Description: (§1) The synthesized compounds were tested for antimicrobial activity against a number of Gram-positive bacteria, Staphylococcus aureus (Sa), Bacillus cereus (Bc) and Enterococcus faecalis (Ef), and Gram-negative bacteria, Escherichia coli (Ec) and Pseudomonas aeruginosa (Pa), including the methicillin-resistant strains S. aureus MRSA-1 (resistant to fluoroquinolones and beta-lactams) and MRSA-2 (resistant to beta-lactams). The methicillin-resistant strains S. aureus were transferred by the Republican Clinical Hospital of the Republic of Tatarstan (Kazan). The fungicidal activity against Candida albicans (Ca) and Trichophyton mentagrophytes var. gypseum (Tm) was studied. These pathogens were chosen because they are the most widespread in the food industry and the healthcare system.
(§2) The antimicrobial activity of the QPSs was determined using the serial dilution technique in Mueller–Hinton Broth 2. The cultures used for testing included the Gram-positive bacteria Staphylococcus aureus ATCC 6538P FDA 209P, Enterococcus faecalis ATCC 2921 and Bacillus cereus ATCC 10702 NCTC 8035, the Gram-negative bacteria Escherichia coli ATCC 25922 and Pseudomonas aeruginosa ATCC 9027, and the fungi Trichophyton mentagrophytes var. gypseum 1773 and Candida albicans ATCC 10231; methicillin-resistant strains of S. aureus MRSA were obtained from hospital patients with chronic tonsillitis (MRSA-1) and sinusitis (MRSA-2) in the Republican Clinical Hospital (Kazan, Russia). […] The bacterial load was 3.0 × 10^5 cfu/mL. The results were recorded every 24 h for 5 days. The cultures were incubated at 37 °C. The experiment was repeated three times. […] The minimum inhibitory concentration (MIC) was defined as the minimum concentration of a compound that inhibits the growth of the corresponding test micro-organism. The growth of bacteria as well as the absence of growth due to the bacteriostatic action of a compound was recorded.

[2] = test system: Enterococcus faecalis ATCC 2921; assay: as above; type: cell-based; settings: average of three ± SD, - means non-active
Description: as §1, §2

[3] = test system: Bacillus cereus ATCC 10702 NCTC 8035; assay: as above; type: cell-based; settings: average of three ± SD, - means non-active; for MIC / MBC: Bacillus cereus, Bc; for MIC: read-out: Minimum Inhibitory Concentration (MIC), Bc; for MBC: read-out: Minimum Bactericidal and Fungicidal Concentration (MBC, MFC), Bc
Description: as §1, §2

[4] = test system: Escherichia coli ATCC 25922; assay: as above; type: cell-based; settings: average of three ± SD, - means non-active; for MIC: Escherichia coli, ATCC25922, Ec, read-out: Minimum Inhibitory Concentration (MIC), Ec
Description: as §1, §2

[5] = test system: Staphylococcus aureus ATCC 6538P FDA 209P; assay: as above; type: cell-based; settings: average of three ± SD, - means non-active; for MIC / MBC: Staphylococcus aureus, Sa; for MIC: read-out: Minimum Inhibitory Concentration (MIC), Sa; for MBC: read-out: Minimum Bactericidal and Fungicidal Concentration (MBC, MFC), Sa
Description: as §1, §2

[6] = test system: Escherichia coli ATCC 25922; assay: as above; type: cell-based; settings: average of three ± SD, - means non-active; for MBC: Escherichia coli, ATCC25922, Ec, read-out: Minimum Bactericidal and Fungicidal Concentration (MBC, MFC), Ec
[7] = test system: methicillin-resistant S. aureus MRSA-2; assay: as above; type: cell-based, Staphylococcus aureus; settings: - means non-active; for MIC / Minimum Inhibitory Concentration (MIC), MRSA-2: MRSA-2 (resistant to beta-lactams); for MIC: read-out: Minimum Inhibitory Concentration (MIC), MRSA-2
Description: as §1, §2

[8] = test system: methicillin-resistant S. aureus MRSA-1; assay: as above; type: cell-based, Staphylococcus aureus; settings: - means non-active; for MIC / MBC: Staphylococcus aureus, MRSA; for MIC / Minimum Inhibitory Concentration (MIC), MRSA-1: MRSA-1 (resistant to fluoroquinolones and beta-lactams); for MIC: read-out: Minimum Inhibitory Concentration (MIC), MRSA-1; for MBC / Minimum Bactericidal and Fungicidal Concentration (MBC, MFC), MRSA-1: MRSA-1; for MBC: read-out: Minimum Bactericidal and Fungicidal Concentration (MBC, MFC), MRSA-1
Description: as §1, §2

[9] = test system: Candida albicans ATCC 10231; assay: Fungicidal activity, serial dilution technique; type: cell-based; settings: average of three ± SD, - means non-active; for MIC: read-out: Minimum Inhibitory Concentration (MIC), Ca
Description: as §1
(§3) The antimicrobial activity of the QPSs was determined using the serial dilution technique in Mueller–Hinton Broth 2. The cultures used for testing included the Gram-positive bacteria Staphylococcus aureus ATCC 6538P FDA 209P, Enterococcus faecalis ATCC 2921 and Bacillus cereus ATCC 10702 NCTC 8035, the Gram-negative bacteria Escherichia coli ATCC 25922 and Pseudomonas aeruginosa ATCC 9027, and the fungi Trichophyton mentagrophytes var. gypseum 1773 and Candida albicans ATCC 10231; methicillin-resistant strains of S. aureus MRSA were obtained from hospital patients with chronic tonsillitis (MRSA-1) and sinusitis (MRSA-2) in the Republican Clinical Hospital (Kazan, Russia). Ciprofloxacin and ketoconazole were purchased from Sigma-Aldrich. The bacterial load was 3.0 × 10^5 cfu/mL. The results were recorded every 24 h for 5 days. The cultures were incubated at 37 °C. The experiment was repeated three times. […] The minimum inhibitory concentration (MIC) was defined as the minimum concentration of a compound that inhibits the growth of the corresponding test micro-organism. The growth of bacteria as well as the absence of growth due to the bacteriostatic action of a compound was recorded.

[10] = test system: Trichophyton mentagrophytes var. gypseum 1773; assay: Fungicidal activity, serial dilution technique; type: cell-based; settings: Tm, average of three ± SD, - means non-active; for MBC / MIC: Trichophyton mentagrophytes; for MBC: read-out: Minimum Bactericidal and Fungicidal Concentration (MBC, MFC), Tm; for MIC: read-out: Minimum Inhibitory Concentration (MIC), Tm
Description: as §1, §3

[11] = Candida albicans, ATCC10231, Ca

Minimum Inhibitory Concentration (MIC), Pa [1] [mg/L] | Minimum Inhibitory Concentration (MIC), Ef [2] [mg/L] | MIC [3] [mg/L] | MIC [4] [mg/L] | MIC ([7]; Staphylococcus aureus, MRSA) [mg/L] | MIC [8] [mg/L] | Minimum Inhibitory Concentration (MIC), Bc [3] [mg/L] | Minimum Inhibitory Concentration (MIC), Ec [4] [mg/L] | Minimum Inhibitory Concentration (MIC), Sa [5] [mg/L] | SMILES | MBC [1] [mg/L] | Minimum Bactericidal and Fungicidal Concentration (MBC, MFC), Bc [3] [mg/L] | Minimum Bactericidal and Fungicidal Concentration (MBC, MFC), Sa [5] [mg/L] | Minimum Bactericidal and Fungicidal Concentration (MBC, MFC), MRSA-2 ([7]; MRSA-2) [mg/L] | Minimum Bactericidal and Fungicidal Concentration (MBC, MFC), Ca [9] [mg/L] | MIC [9, 11] [mg/L] | Minimum Bactericidal and Fungicidal Concentration (MBC, MFC), Ef [2] [mg/L] | Minimum Bactericidal and Fungicidal Concentration (MBC, MFC), Ec [6] [mg/L] | Minimum Bactericidal and Fungicidal Concentration (MBC, MFC), MRSA-1 [8] [mg/L] | Minimum Bactericidal and Fungicidal Concentration (MBC, MFC), Tm [10] [mg/L] | Minimum Inhibitory Concentration (MIC), Tm [10] [mg/L] | also measured
 | 1.9 ± 0.1 |  | 1.9 ± 0.1 | 0.5 ± 0.04 | 0.5 ± 0.03 | 7.8 ± 0.6 |  | 1.9 ± 0.2 | CCCCCCCCCCCCCC[P+](C(C)(C)C)(C(C)(C)C)C(C)(C)C [Compound 14a] | 125 ± 11 |  |  | 62.5 ± 5.3 |  | 7.8 ± 0.6 | 3.9 ± 0.2 | 1.9 ± 0.1 | 7.8 ± 0.6 | 125 ± 10 | 125 ± 11 | MIC [1]: 15.6 ± 1.1 mg/L; MBC [3]: 15.6 ± 1.3 mg/L; MBC [5]: 1.9 ± 0.1 mg/L; MBC ([9]; Candida albicans, ATCC10231, Ca, read-out: Minimum Bactericidal and Fungicidal Concentration (MBC, MFC), Ca): 15.6 ± 1.2 mg/L
 |  | 0.5 ± 0.03 |  | 0.5 ± 0.04 | 0.5 ± 0.02 |  | 1.9 ± 0.1 |  | CCCCCCCCCCCCCCC[P+](C(C)(C)C)(C(C)(C)C)C(C)(C)C [Compound 15a] | 7.8 ± 0.6 |  |  |  | 3.9 ± 0.2 | 1.9 ± 0.1 | 1.9 ± 0.1 |  |  |  |  | MIC [1]: 7.8 ± 0.7 mg/L; MIC ([2]; Enterococcus faecalis, ATCC2921, Ef, read-out: Minimum Inhibitory Concentration (MIC), Ef): 0.5 ± 0.03 mg/L; MBC [3]: 15.6 ± 1.3 mg/L; MBC [5]: 0.5 ± 0.03 mg/L; MIC [5]: 0.2 ± 0.01 mg/L; MBC [6]: 3.9 ± 0.2 mg/L; MBC ([7]; Staphylococcus aureus, MRSA, MRSA-2, read-out: Minimum Bactericidal and Fungicidal Concentration (MBC, MFC), MRSA-2): 0.5 ± 0.03 mg/L; MBC [8]: 0.5 ± 0.04 mg/L; MBC [10]: 62.5 ± 5.7 mg/L; MIC [10]: 62.5 ± 5.3 mg/L

Continued, compound first:

SMILES | Minimum Inhibitory Concentration (MIC), Pa [1] [mg/L] | Minimum Inhibitory Concentration (MIC), Ef [2] [mg/L] | MIC [3] [mg/L] | MIC [4] [mg/L] | MIC ([7]; Staphylococcus aureus, MRSA) [mg/L] | MIC [8] [mg/L] | Minimum Inhibitory Concentration (MIC), Bc [3] [mg/L] | Minimum Inhibitory Concentration (MIC), Ec [4] [mg/L] | Minimum Inhibitory Concentration (MIC), Sa [5] [mg/L] | MBC [1] [mg/L] | Minimum Bactericidal and Fungicidal Concentration (MBC, MFC), Bc [3] [mg/L] | Minimum Bactericidal and Fungicidal Concentration (MBC, MFC), Sa [5] [mg/L] | Minimum Bactericidal and Fungicidal Concentration (MBC, MFC), MRSA-2 ([7]; MRSA-2) [mg/L] | Minimum Bactericidal and Fungicidal Concentration (MBC, MFC), Ca [9] [mg/L] | MIC [9, 11] [mg/L] | Minimum Bactericidal and Fungicidal Concentration (MBC, MFC), Ef [2] [mg/L] | Minimum Bactericidal and Fungicidal Concentration (MBC, MFC), Ec [6] [mg/L] | Minimum Bactericidal and Fungicidal Concentration (MBC, MFC), MRSA-1 [8] [mg/L] | Minimum Bactericidal and Fungicidal Concentration (MBC, MFC), Tm [10] [mg/L] | Minimum Inhibitory Concentration (MIC), Tm [10] [mg/L] | also measured
CCCCCCCCCCCCC[P+](C(C)(C)C)(C(C)(C)C)C(C)(C)C [Compound 13a, tri-tert-butyl(n-tridecyl)phosphonium] | 15.6 ± 1.3 | 3.9 ± 0.3 | 0.9 ± 0.07 | 3.9 ± 0.02 | 0.3 ± 0.02 | 0.5 ± 0.04 |  |  |  | 31.3 ± 2.4 | 7.8 ± 0.6 | 0.5 ± 0.04 | 0.5 ± 0.03 | 31.3 ± 2.2 | 15.6 ± 1.2 |  |  |  |  |  | MBC ([2]; Enterococcus faecalis, ATCC2921, Ef, read-out: Minimum Bactericidal and Fungicidal Concentration (MBC, MFC), Ef): 7.8 ± 0.6 mg/L; MIC [5]: 0.2 ± 0.01 mg/L; MBC [6]: 3.9 ± 0.2 mg/L; MBC [8]: 0.3 ± 0.02 mg/L; MBC [10]: 125 ± 10 mg/L; MIC [10]: 125 ± 10 mg/L
CCCCCCCCCCCCC[P+](C(C)(C)C)(C(C)(C)C)C(C)(C)C [Compound 13b] | 31.3 ± 2.3 | 1.9 ± 0.1 |  |  |  |  | 0.5 ± 0.04 | 7.8 ± 0.6 | 0.2 ± 0.01 |  | 31.3 ± 2.3 | 0.2 ± 0.01 | 3.9 ± 0.3 | 7.8 ± 0.6 |  | 3.9 ± 0.3 | 7.8 ± 0.6 | 0.5 ± 0.03 | 62.5 ± 5.3 | 62.5 ± 5.2 | Minimum Bactericidal and Fungicidal Concentration (MBC, MFC), Pa [1]: 31.3 ± 2.2 mg/L; Minimum Inhibitory Concentration (MIC), MRSA-2 [7]: 0.3 ± 0.01 mg/L; Minimum Inhibitory Concentration (MIC), MRSA-1 [8]: 0.3 ± 0.02 mg/L; Minimum Inhibitory Concentration (MIC), Ca [9]: 7.8 ± 0.5 mg/L
CCCCCCCCCCCCCC[P+](C(C)(C)C)(C(C)(C)C)C(C)(C)C [Compound 14b] | 7.8 ± 0.6 | 0.9 ± 0.08 |  |  |  |  | 0.9 ± 0.07 | 1.9 ± 0.1 | 0.1 ± 0.008 |  | 15.6 ± 1.2 | 1.9 ± 0.1 | 0.5 ± 0.03 | 15.6 ± 1.2 |  | 1.9 ± 0.1 | 3.9 ± 0.2 | 0.5 ± 0.03 | 15.6 ± 1.3 | 15.6 ± 1.3 | Minimum Bactericidal and Fungicidal Concentration (MBC, MFC), Pa [1]: 62.5 ± 5.4 mg/L; Minimum Inhibitory Concentration (MIC), MRSA-2 [7]: 0.3 ± 0.02 mg/L; Minimum Inhibitory Concentration (MIC), MRSA-1 [8]: 0.3 ± 0.01 mg/L; Minimum Inhibitory Concentration (MIC), Ca [9]: 3.9 ± 0.3 mg/L

From paper PMC8744835, “Sterically Hindered Quaternary Phosphonium Salts (QPSs): Antimicrobial Activity and Hemolytic and Cytotoxic Properties” (International Journal of Molecular Sciences, 2021)
